Laboratory results reported in patent US10414832B2, “Derivatives of sulfated polysaccharides, method of preparation, modification and use thereof” (Contipro a.s., priority 2015, dated 2019).

Tests used:
Solubility in DMSO = assay type: physicochemical; settings: lyophilized acid form
Protocol: A 1% solution of chondroitin sulfate (500 mg, 1.1 mmol) in distilled water was prepared. The solution was cooled to 5° C. and 1.2 ml of Amberlite IR 120 Na(H^+) catex was added. The reaction mixture was stirred for 24 h at 5° C. The catex was filtered off, the product was frozen and lyophilized. Its solubility in DSMO was tested and found satisfactory.

[1] = purchased from Sigma Aldrich; cited from earlier work
3T3 fibroblasts = experiment: Viability tests of 3T3 fibroblasts (MTT method); assay type: cell-based; settings: 3T3 cells, 10, 100, 500 and 1000 μg·mL^−1, 0, 24, 48, 72 hours
Protocol: FIG. 3 illustrates the results of the cell viability tests of 3T3 fibroblasts in α,β-unsaturated aldehyde of chondroitin sulfate (Mw=4×10^4 g/mol, DS=20%). The activation vs inhibition curve, expressed in %, with respect to the control in time T=0 h (100%). Evaluation by means of MTT method, six repetitions.
The tested substance, α,β-unsaturated aldehyde of chondroitin sulfate (DS=20%, Mw=40 kDa), was dissolved in a complete 3T3 medium. The solution was filtered via a 0.22 μm filter. The final test concentrations of the tested solution were 10, 100, 500, and 1000 μg·mL^−1. 3T3 cells of the density of 3000 cells per a well were inoculated into 96-well plates. Before the treatment, the cells were cultured for 24 hours in a complete medium. The cell viability was evaluated by spectrophotometry by means of 3-[4,5-dimethylthiazole-2-yl]-2,5-diphenyl tetrazolium bromide (MTT method) in the intervals of 0, 24, 48, 72 hours. The whole experiment was supplemented with a set of non-treated controls and blank samples. The measured optical density data were converted into percentage formulation related to the control in the time T0 hours (the ratio of the optical density of the treated sample with respect to the optical density of the non-treated control T0, multiplied by 100) and the standard error of the mean (SEM) was calculated. The results of the test are graphically presented at FIG. 3.

Substance | solubility in water [1] | also measured
Acid Form of Chondroitin Sulfate [Example 26] |  | solubility in DSMO (Solubility in DMSO): satisfactory
Lambda carrageenan | 10000 µg/mL | 
sodium salt of dermatan sulfate | 5000 µg/mL | 
α,β-unsaturated aldehyde of chondroitin sulfate |  | cytotoxicity (cell viability of 3T3 fibroblasts) (3T3 fibroblasts): not cytotoxic
